According to ChEMBL document CHEMBL1201862, “PubChem BioAssay data set” (2004):
Active and inactive are the calls of the source.

Assays:
[1] = HIV-1 Vif–A3G interaction blockers – biochemical, TR-FRET, GST-Vif 1-94, biotin-A3G peptide, dose response retest, primary screen (AID 1117319); format: functional;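 note: TR-FRET signal of purified GST-Vif binding a biotinylated A3G peptide; inhibitors lower the FRET signal by blocking Vif and A3G binding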
[2] = molecular target: T1, Oxysterols receptor LXR-beta (Homo sapiens, UniProt P55055); format: functional, cell-based;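 note: agonist activity at LXR measured by a cell-based luminescence readout across a dose range, run as a counterscreen for daf-12 agonists; HEK293 cells with Gal4-LXR fusion and GAL4-driven luciferase reporter; potency for activation of Gal4-LXR reporter so compounds are agonists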
T1 sequence (P55055 whole entry): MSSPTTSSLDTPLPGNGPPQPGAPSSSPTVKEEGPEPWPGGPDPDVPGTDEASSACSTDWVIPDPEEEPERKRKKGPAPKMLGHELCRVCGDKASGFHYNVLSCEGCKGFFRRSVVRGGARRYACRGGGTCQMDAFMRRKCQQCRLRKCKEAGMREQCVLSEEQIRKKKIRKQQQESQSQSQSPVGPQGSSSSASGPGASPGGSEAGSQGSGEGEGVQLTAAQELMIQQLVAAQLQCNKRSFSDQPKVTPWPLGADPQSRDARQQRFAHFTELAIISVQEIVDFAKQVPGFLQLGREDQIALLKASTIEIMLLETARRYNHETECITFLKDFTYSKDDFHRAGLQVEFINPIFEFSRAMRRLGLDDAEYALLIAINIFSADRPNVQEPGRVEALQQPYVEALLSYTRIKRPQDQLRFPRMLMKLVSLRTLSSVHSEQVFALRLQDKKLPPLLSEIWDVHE

Protein skinhead-1 = molecular target: T2, Protein skinhead-1 (Caenorhabditis elegans, UniProt P34707); format: functional
T2 sequence (P34707 whole entry): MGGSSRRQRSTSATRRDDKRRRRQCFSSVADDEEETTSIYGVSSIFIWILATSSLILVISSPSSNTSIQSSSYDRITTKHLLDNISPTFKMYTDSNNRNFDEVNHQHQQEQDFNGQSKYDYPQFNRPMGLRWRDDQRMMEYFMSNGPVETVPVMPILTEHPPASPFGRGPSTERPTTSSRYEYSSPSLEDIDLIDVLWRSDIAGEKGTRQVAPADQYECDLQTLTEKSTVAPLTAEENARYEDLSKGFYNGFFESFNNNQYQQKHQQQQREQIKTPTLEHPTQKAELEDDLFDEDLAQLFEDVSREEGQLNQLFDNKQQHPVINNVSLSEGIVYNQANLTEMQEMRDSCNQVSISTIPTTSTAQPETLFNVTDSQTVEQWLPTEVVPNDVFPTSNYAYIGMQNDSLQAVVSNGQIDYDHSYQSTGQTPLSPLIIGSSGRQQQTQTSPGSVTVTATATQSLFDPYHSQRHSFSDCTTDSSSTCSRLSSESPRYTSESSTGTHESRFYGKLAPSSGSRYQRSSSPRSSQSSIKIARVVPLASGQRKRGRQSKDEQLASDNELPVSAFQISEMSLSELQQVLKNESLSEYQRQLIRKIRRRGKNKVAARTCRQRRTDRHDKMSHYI

HEK293 = assay: EBV LMP1 TES2 canonical NF-kB signalling blockers – cell-based, HEK293, luciferase, cherry-pick, dose response (AID 588343); format: functional; details: Homo sapiens
[3] = molecular target: Peroxisome proliferator-activated receptor gamma/Nuclear receptor coactivator 1 (Homo sapiens, UniProt P37231); format: functional;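 note: agonist potency as compounds enhance coactivator SRC-1 recruitment to PPARgamma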
[4] = molecular target: Peroxisome proliferator-activated receptor gamma/Nuclear receptor coactivator 2 (Homo sapiens, UniProt P37231); format: functional;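 note: agonist potency for raising coactivator recruitment to the receptor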
[5] = molecular target: Peroxisome proliferator-activated receptor gamma/Nuclear receptor coactivator 3 (Homo sapiens, UniProt P37231); format: functional;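 note: agonist potency for raising coactivator recruitment to the receptor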
[6] = viability loss in THP-1 monocytes – THP-1 cells, cytotoxicity control for Vif-APOBEC3G degradation inhibitor project, dose response (AID 1117359); format: functional; details: THP-1
HT-1080 = assay: HT1080 cell viability loss – fluorescence readout (AID 620); format: functional, cell-based; details: Homo sapiens
[7] = molecular target: Luciferin 4-monooxygenase (Photinus pyralis, UniProt P08659); assay: Counter Screen for Luciferase-based Assay Positives. [Related pubchem assays: 620, 618, 411 ]
[8] = molecular target: T3, COUP transcription factor 2 (Homo sapiens, UniProt P24468); assay: Luminescence-based cell-based high throughput dose response assay to identify inhibitors of COUP-TFII (NR2F2).; format: functional;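 note: HEK293 cells transiently cotransfected with COUP-TFII expression vector and reporter; luciferase reporter luminescence driven by COUP-TFII from the pX2-168 reporter plasmid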
T3 sequence (P24468 whole entry): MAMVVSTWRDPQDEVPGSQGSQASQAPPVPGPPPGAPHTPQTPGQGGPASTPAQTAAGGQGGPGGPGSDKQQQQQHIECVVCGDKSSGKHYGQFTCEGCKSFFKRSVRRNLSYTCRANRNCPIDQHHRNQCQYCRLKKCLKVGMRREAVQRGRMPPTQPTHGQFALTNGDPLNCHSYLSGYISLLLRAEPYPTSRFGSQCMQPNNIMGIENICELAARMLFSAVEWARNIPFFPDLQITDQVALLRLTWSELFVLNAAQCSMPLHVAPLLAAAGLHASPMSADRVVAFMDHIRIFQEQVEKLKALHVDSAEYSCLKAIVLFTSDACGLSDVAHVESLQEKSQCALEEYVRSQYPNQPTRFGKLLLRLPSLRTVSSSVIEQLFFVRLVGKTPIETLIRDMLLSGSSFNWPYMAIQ

Vero = assay: cells; format: functional; details: Chlorocebus sabaeus
Paired box protein Pax-8 = Paired box protein Pax-8 (Homo sapiens, UniProt Q06710); assay: PAX8 transcriptional activity inhibition in RMG-I – RMG-I cells, luciferase, cherry-pick, dose response (AID 687027); format: functional, cell-based;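 note: luciferase reporter driven by Pax8 target thyroperoxidase promoter measured by SteadyGlo luminescence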
[9] = OVCAR8 cell viability loss – plate reader, dry powder samples, PAX8 project, dose response (AID 743197); format: functional, cell-based; details: OVCAR-8
[10] = molecular target: T4, Replicative DNA helicase DnaB (Mycobacterium tuberculosis, UniProt P9WMR3); assay: DnaB intein splicing inhibitors, dose response, biochemical, cell-free fluorescence (AID 449749); format: functional
T4 sequence (P9WMR3 whole entry): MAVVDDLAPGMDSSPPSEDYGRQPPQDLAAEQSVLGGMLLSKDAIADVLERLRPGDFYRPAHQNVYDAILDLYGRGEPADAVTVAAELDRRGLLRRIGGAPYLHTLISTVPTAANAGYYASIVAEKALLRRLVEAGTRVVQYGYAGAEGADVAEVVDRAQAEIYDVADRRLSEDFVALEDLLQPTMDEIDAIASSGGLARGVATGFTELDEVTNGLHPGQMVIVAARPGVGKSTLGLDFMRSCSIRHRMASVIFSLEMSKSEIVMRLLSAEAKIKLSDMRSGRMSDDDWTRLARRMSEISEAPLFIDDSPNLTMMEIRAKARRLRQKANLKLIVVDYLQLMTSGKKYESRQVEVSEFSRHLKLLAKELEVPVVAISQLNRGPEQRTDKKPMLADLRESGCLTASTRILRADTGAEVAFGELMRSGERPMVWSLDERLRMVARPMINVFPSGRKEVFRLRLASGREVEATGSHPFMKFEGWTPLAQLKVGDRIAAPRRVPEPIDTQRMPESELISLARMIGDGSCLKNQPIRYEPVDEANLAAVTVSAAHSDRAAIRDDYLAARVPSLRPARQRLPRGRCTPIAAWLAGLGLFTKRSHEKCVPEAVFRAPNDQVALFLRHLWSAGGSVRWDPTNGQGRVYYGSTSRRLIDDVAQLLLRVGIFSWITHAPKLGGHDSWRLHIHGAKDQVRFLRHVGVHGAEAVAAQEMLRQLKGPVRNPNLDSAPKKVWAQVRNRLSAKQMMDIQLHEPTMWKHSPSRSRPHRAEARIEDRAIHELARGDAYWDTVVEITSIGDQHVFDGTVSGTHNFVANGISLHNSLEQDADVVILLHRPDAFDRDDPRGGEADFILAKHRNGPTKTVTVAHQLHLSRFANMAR

[11] = molecular target: T5, Tyrosyl-DNA phosphodiesterase 2 (Homo sapiens, UniProt O95551); assay: potency against TDP2 phosphodiesterase activity – biochemical, epi absorbance, IC50, dose response (AID 743297)
T5 sequence (O95551 whole entry): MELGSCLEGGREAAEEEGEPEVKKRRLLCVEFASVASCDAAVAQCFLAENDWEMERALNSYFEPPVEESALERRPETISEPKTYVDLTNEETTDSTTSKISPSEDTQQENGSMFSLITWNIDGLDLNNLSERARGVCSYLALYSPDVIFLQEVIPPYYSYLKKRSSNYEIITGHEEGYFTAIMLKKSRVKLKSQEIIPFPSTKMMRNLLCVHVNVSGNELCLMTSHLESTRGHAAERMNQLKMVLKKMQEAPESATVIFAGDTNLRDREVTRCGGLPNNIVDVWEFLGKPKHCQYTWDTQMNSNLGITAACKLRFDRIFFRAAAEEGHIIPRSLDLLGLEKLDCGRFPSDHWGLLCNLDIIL

Protein RecA = molecular target: T6, Protein RecA (Mycobacterium tuberculosis, UniProt P9WHJ3); assay: Fluorescence Cell-Free Homogeneous Dose Retest to Identify Inhibitors of RecA-Intein Splicing Activity. [Related pubchem assays (depositor defined):AID2097, AID2223, AID489010, AID492950]; format: functional
T6 sequence (P9WHJ3 whole entry): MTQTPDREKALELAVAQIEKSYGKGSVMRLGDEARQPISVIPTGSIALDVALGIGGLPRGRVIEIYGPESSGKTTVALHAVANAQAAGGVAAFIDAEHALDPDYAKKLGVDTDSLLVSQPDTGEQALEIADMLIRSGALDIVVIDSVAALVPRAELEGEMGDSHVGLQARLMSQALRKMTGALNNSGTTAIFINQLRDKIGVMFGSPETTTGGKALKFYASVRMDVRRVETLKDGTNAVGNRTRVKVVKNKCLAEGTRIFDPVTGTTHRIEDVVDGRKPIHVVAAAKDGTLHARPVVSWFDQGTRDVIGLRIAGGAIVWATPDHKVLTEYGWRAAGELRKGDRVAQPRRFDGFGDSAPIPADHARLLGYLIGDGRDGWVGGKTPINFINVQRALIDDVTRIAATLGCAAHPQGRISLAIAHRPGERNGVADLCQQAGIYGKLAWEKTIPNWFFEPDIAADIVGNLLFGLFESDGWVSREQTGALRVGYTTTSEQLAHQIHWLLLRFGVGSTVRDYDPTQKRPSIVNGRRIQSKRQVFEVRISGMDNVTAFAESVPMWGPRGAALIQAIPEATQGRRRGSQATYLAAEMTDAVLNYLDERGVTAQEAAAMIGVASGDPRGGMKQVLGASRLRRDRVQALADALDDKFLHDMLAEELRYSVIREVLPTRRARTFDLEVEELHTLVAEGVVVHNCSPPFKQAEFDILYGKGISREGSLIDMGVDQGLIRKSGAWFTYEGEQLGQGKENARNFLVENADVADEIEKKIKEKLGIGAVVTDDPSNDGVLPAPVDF

[12] = P. falciparum Dd2 growth inhibitors, dose response, SYBR Green, cherry-picked samples (AID 1159567); format: functional, cell-based

Sequence of Peroxisome proliferator-activated receptor gamma/Nuclear receptor coactivator 2 (P37231 whole entry): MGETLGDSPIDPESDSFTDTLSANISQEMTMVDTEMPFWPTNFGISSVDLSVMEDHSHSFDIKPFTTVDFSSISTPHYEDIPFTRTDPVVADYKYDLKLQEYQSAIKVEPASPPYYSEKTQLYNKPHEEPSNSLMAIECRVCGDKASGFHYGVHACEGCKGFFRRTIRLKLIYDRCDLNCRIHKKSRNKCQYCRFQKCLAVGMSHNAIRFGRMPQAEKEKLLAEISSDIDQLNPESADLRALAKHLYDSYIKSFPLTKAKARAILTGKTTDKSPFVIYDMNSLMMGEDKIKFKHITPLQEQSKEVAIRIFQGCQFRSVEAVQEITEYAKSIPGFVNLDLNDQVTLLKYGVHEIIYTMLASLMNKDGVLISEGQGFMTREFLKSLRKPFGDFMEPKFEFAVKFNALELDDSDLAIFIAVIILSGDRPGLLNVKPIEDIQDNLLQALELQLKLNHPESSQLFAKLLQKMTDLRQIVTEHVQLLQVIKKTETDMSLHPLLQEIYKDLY
Sequence of Peroxisome proliferator-activated receptor gamma/Nuclear receptor coactivator 2 (Q15596 whole entry, further chain): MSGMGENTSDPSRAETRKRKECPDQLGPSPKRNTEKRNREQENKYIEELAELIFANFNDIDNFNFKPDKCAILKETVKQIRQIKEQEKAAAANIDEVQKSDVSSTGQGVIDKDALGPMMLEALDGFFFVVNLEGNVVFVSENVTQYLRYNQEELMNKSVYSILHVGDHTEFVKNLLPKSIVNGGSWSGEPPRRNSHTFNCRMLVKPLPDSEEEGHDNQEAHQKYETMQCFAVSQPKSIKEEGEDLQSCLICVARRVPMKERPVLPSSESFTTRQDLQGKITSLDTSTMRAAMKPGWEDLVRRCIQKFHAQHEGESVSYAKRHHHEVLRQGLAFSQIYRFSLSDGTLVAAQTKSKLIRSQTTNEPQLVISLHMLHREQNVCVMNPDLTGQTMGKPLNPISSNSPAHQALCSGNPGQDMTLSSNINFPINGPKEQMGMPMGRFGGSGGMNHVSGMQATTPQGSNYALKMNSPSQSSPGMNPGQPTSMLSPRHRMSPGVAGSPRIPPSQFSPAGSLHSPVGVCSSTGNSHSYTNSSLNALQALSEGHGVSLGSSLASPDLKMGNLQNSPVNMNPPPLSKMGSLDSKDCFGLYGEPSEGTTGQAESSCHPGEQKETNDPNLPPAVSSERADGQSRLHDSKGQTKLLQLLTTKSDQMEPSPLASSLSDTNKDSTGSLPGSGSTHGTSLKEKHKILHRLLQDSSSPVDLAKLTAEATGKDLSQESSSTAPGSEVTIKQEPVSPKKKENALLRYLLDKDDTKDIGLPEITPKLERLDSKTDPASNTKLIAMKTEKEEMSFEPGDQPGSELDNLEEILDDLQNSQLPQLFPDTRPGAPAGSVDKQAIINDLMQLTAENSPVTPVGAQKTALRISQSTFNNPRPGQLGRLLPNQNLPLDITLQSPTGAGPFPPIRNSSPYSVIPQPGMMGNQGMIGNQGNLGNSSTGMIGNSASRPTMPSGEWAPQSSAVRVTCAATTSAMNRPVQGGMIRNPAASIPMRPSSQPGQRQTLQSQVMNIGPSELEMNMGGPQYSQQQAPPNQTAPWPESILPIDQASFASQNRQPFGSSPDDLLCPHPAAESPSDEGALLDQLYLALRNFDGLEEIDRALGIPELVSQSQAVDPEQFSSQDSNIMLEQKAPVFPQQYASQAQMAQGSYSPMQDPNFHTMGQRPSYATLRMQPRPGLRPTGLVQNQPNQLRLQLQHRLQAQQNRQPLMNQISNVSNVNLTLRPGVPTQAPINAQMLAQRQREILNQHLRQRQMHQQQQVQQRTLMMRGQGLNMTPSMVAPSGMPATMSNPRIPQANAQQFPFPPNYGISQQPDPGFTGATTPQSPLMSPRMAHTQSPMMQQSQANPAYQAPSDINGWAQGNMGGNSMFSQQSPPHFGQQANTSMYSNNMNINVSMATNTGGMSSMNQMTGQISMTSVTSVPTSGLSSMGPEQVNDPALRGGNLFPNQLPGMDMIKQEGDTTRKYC
Sequence of Peroxisome proliferator-activated receptor gamma/Nuclear receptor coactivator 3 (P37231 whole entry): as the sequence (P37231 whole entry) above
Sequence of Peroxisome proliferator-activated receptor gamma/Nuclear receptor coactivator 3 (Q9Y6Q9 whole entry, further chain): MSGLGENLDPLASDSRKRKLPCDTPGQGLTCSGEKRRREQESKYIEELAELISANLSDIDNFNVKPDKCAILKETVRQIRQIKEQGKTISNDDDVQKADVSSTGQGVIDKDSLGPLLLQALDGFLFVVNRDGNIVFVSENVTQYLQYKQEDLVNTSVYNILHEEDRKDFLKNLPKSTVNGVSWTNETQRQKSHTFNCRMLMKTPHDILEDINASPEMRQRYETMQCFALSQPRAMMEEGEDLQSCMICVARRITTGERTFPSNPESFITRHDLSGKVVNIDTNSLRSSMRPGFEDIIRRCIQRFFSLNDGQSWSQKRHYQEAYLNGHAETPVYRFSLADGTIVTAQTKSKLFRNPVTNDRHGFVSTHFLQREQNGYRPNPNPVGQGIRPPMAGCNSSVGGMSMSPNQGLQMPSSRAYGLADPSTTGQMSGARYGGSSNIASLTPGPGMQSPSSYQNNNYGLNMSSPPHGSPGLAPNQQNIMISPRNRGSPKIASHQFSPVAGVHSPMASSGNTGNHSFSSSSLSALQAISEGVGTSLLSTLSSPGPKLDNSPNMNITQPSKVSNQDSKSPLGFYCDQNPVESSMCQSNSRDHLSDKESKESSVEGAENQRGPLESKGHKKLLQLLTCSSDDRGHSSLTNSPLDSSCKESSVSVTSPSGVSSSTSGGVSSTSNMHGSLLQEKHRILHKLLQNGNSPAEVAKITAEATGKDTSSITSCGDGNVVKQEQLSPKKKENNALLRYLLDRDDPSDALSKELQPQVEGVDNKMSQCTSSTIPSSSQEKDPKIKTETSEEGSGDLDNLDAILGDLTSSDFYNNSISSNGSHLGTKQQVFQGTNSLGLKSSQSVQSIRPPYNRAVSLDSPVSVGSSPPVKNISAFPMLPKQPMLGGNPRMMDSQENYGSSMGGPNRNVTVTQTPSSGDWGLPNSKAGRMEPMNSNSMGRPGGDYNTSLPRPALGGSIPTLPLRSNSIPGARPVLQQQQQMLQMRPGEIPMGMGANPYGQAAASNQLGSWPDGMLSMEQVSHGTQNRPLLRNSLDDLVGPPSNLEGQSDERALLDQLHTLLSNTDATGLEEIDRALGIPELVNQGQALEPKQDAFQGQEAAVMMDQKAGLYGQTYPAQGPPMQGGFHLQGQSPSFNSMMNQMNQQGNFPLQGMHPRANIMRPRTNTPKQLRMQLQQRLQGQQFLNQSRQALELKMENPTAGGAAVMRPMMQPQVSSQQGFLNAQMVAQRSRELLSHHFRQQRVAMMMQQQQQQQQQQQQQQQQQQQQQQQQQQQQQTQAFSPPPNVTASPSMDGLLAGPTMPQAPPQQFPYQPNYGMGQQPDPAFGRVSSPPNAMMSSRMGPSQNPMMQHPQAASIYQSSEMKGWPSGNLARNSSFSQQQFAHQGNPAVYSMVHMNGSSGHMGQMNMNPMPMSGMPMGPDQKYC
Sequence of Luciferin 4-monooxygenase (P08659 whole entry): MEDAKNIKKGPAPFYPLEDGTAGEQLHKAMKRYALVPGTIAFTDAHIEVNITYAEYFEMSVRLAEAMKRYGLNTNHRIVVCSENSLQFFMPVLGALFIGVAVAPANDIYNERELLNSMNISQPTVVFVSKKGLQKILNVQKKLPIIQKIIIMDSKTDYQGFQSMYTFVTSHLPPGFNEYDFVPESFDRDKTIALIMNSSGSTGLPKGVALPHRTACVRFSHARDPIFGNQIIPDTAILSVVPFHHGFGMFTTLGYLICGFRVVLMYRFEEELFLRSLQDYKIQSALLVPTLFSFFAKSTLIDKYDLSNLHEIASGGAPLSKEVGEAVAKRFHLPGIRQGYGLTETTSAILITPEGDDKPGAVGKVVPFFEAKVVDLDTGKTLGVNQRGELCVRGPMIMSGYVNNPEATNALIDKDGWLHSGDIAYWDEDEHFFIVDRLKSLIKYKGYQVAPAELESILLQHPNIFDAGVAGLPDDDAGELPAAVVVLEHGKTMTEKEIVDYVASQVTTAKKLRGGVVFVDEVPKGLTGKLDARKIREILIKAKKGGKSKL
Sequence of Paired box protein Pax-8 (Q06710 whole entry): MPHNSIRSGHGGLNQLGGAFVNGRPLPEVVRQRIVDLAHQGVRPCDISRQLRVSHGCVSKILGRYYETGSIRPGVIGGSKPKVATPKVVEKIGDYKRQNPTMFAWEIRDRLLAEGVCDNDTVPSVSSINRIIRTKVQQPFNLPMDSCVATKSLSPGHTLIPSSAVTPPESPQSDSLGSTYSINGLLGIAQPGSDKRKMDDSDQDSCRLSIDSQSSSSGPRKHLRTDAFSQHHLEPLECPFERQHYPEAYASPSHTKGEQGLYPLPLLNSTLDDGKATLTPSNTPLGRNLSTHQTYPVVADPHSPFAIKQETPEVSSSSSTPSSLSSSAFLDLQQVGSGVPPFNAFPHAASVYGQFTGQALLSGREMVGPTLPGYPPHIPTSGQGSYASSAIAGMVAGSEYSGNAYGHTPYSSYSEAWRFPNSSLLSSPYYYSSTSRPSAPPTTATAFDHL

COc1ccccc1C(=O)Nc1ccc(-c2nnc(SCC(=O)O)n2C)cc1
IC50 [1]: > 100 µM (active)

FC(F)(F)c1cc(Cl)c2nc(-c3ccccc3)cn2c1
EC50 [2]: > 67.5 µM (inactive)
IC50 (Protein skinhead-1): > 100 µM (inactive)

CCc1cc(C(=O)Nc2ncccc2O)sc1C
EC50 [2]: > 67.5 µM (inactive)
AC50 (HEK293): 4.64 µM (active)

O=C1OCCC1Sc1nnc(-c2ccc(Br)cc2)o1 (centres undefined)
EC50 [3]: > 79.4 µM (not active)
EC50 [4]: 75.3 µM (not active)
EC50 [5]: > 79.4 µM (not active)

Cc1c(C=O)c2ccccc2n1Cc1ccc(F)cc1
CC50 [6]: > 40 µM (active)

CC(=O)Nc1ccc2oc(-c3cc(F)c(F)cc3Cl)nc2c1
EC50 (HT-1080): > 50 µM (not active)
EC50 [7]: 16.2 µM (active)

O=C(c1ccccc1)c1cnc(-c2ccc(Cl)cc2)s1
EC50 [3]: 14.4 µM (not active)
EC50 [4]: 11.9 µM (not active)
EC50 [5]: 21.4 µM (not active)

CCn1c(SCC(=O)Nc2ccccc2C)nnc1-c1ccccc1O
EC50 (HT-1080): > 50 µM (not active)
EC50 [7]: > 100 µM (not active)

COc1ccc(F)cc1S(=O)(=O)Nc1cc2c3c(c1)CC(=O)N3CCC2
CC50 [6]: > 40 µM (active)

Cc1n[nH]c(C(F)(F)F)c1N=NN1CCOCC1
IC50 [8]: 15.5 µM (inactive)
CC50 (Vero): 6.78 µM (active)

CCS(=O)(=O)N1CCC(C(=O)NCc2ccccn2)CC1
IC50 [1]: > 100 µM (active)

CC(C)CNc1ncnc2c1ncn2[C@H]1CN(Cc2ccc(-c3ccccc3)cc2)C[C@@H](CO)O1
IC50 [8]: 9.84 µM (active)

COc1ccccc1NC(=O)COC(=O)c1c(NC(C)=O)sc(C)c1C
CC50 [6]: > 40 µM (active)

COc1ccc(CN(C)C[C@@H]2OCCCC[C@H](C)Oc3ccc(NC(=O)Nc4cccc5ccccc45)cc3C(=O)N([C@H](C)CO)C[C@H]2C)cc1
AC50 (Paired box protein Pax-8): 69.6 µM (active)
AC50 [9]: > 70 µM (inactive)

COc1ccccc1/C=N\N=C(\N)c1ccccn1
EC50 [2]: > 67.6 µM (inactive)

Oc1ccc(/N=C/c2sc3ccccc3c2Cl)cc1
AC50 [10]: 137 µM (active)
IC50 [11]: > 128 µM (inactive)
EC50 (Protein RecA): > 380 µM (inactive)

COc1ccc(C#Cc2ccc([C@H]3[C@@H](CO)N4CCCCN(C(=O)Nc5ccccc5F)C[C@@H]34)cc2)cc1
AC50 [12]: 5.66 µM (active)
